{
  "source": "patent US7122360B1",
  "about": "“Polypeptides, polynucleotides and uses thereof” (University of Dundee, priority 1998, dated 2006)",
  "key": {"CREB [1]": {"test_system": "CREB", "assay": "NGF-induced phosphorylation of CREB in PC12 cells", "format": "cell-based", "conditions": "50 μM PD 98059, 10 μM SB 203580, 5 μM Ro 318220, NGF 30 ng/ml 15 min", "experimental": "(§1) Immunoblotting for phosphorylated CREB and ATF1. Cell extracts were prepared and immunoblotting of these carried out as described (Tan et al., 1996) using a phosphospecific antibody recognizing CREB phosphorylated on Ser 133 and ATF1 phosphorylated on Ser63 purchased from UBI (Lake Placid, USA). Detection of phosphorylated CREB and ATF1 proteins was performed using the enhanced chemiluminescence reagent (Amersham)."}, "MSK1": {"test_system": "MSK1", "assay": "LPS-induced activation of MSK1 in RAW 264 macrophages", "format": "cell-based, mouse", "conditions": "for LPS-stimulated phosphorylation of MSK1: 50 μM PD 98059 or 10 (M SB203580), FIG. 15; for LPS-induced activation of MSK1: LPS 100 ng/ml 1 h, 10 μM UO 126, 10 μM SB 203580, 5 TM Ro 318220", "experimental": "FIG. 15. […] After cell lysis aliquots were assayed for either MSK1 (A), MAPKAP-K1 (B), MAPKAP-K2 (C) after their immunoprecipitation from the lysates or immunoblotted for phosphorylation of CREB and ATF1 (D).\nFIG. 18. Effect of inhibitors on the LPS-induced activation of protein kinases in RAW 264 macrophages. Macrophages were incubated for 1 h in the presence or absence 10 μM UO 126 (U) and/or 10 μM SB 203580 (SB), or 5 TM Ro 318220 (Ro), then stimulated for 1 h with or without 100 ng/ml LPS in the continued presence or absence of the inhibitors. MSK1(A), MSK2 (B), MAPKAP-KI (C) and MAPKAP-K2 (D) were then assayed after immunoprecipitation from the lysates.\n(§2) Cell culture and stimulation. RAW 264 macrophages were maintained in a 95% air/5% CO2 atmosphere in Dulbecco's modified Eagle's medium (DMEM) plus 10% (v/v) heat-inactivated foetal calf serum, 100 U/ml penicillin, […] streptomycin. The day before stimulation, the macrophages were plated at a density of 2×10^6 cells per 6 cm plate and 2 h before stimulation, the medium removed and replaced with 2 ml of DMEM. Where indicated, […] (10 TM) and/or PD 98059 (50 Tm), or U0126 (10 TM) or Ro 318220 (5 TM), were added 1 h before stimulation.\nCell lysis. After stimulation, the medium was aspirated and the cells were solubilized in 0.2 ml of ice cold lysis buffer (50 mM Tris-acetate pH 7.0, 1 mM EDTA, 1 mM EGTA, 1% (w/v) Triton X-100, 1 mM sodium orthovanadate, 10 mM sodium glycerophosphate, 50 mM NaF, 5 mM sodium pyrophosphate, 0.27 M sucrose, 2 TM microcystin-LR, 1 mM benzamidine, 0.1% (v/v) 2-mercaptoethanol and “complete” proteinase inhibitor cocktail—one tablet per 50 ml). The samples were then snap frozen in liquid nitrogen and stored in aliquots at −80° C. until analysis. Protein concentrations were determined according to [7]."}, "IL-1 mRNA": {"test_system": "IL-1 mRNA", "assay": "IL-1 gene transcription in RAW 264 macrophages, RT-PCR", "format": "cell-based, mouse", "conditions": "LPS 3 h, PD 98059 (50 TM), SB 203580 (10 TM), Ro 318220 (5 TM)", "experimental": "(§3) FIG. 21. Effect of PD 98059 and SB 203580 on gene transcription in RAW 264 macrophages. (A) Cells were stimulated for the times indicated with LPS (100 ng/ml). Total RNA was extracted at each time point and mRNA encoding IL-1, COX-2 and HRPT was determined using the reverse transcriptase polymerase chain reaction (Section 2.6). (B) As in A, except that the macrophages were incubated for 1 h in the presence or absence of PD 98059 (50 TM) and/or SB 203580 (10 TM), or Ro 318220 (5 TM), then stimulated for 3 h in the absence or presence of LPS, and in the continued presence or absence of the inhibitors. RTPCR was performed using oligonucleotides encoding fragments of IL-1, COX-2 and HPRT.\nas §2\n(§4) Reverse transcripts polymerase chain reactions. Total RNA was prepared from LPS-stimulated or control RAW 264 cells using the Rneasy Mini Kit according to the manufacturer's protocol. Total RNA was measured and 100 ng was reverse transcribed using Promega AMV reverse transcriptase (5 U/ml) with the oligonucleotides […] and […] TGA (coding for the IL-1 gene) and […] and […] (coding for the COX-2 gene). Conditions for PCR amplification of the resulting first-stand DNA template were 94° C. denaturing for 30 sec, 60° C. annealing for 1 min, 68° C. extension for 1 min, 30 cycles using thermostable Tf1 DNA polymerase (SU/ml), and 1 mM MgSO4."}, "CREB [2]": {"test_system": "CREB", "assay": "Arsenite and FGF-induced phosphorylation of CREB in SK-N-MC cells", "format": "cell-based", "conditions": "for FGF-induced phosphorylation of CREB: 50 μM PD 98059, 10 μM SB 203580, FGF 50 ng/ml 15 min", "experimental": "FIG. 14. […] After cell lysis aliquots were assayed for either MSK1 (A), MAPKAP-K1 (B), MAPKAP-K2 (C) after their immunoprecipitation from the lysates or immunoblotted for phosphorylation of CREB and ATF1 (D).\nas §1"}, "HPRT mRNA": {"test_system": "HPRT mRNA", "assay": "HPRT housekeeping gene mRNA in RAW 264 macrophages, RT-PCR", "format": "cell-based, mouse", "conditions": "PD 98059 (50 TM), SB 203580 (10 TM), Ro 318220 (5 TM)", "experimental": "as §3, §2, §4"}, "COX-2 mRNA": {"test_system": "COX-2 mRNA", "assay": "COX-2 gene transcription in RAW 264 macrophages, RT-PCR", "format": "cell-based, mouse", "conditions": "LPS 3 h, PD 98059 (50 TM), SB 203580 (10 TM), Ro 318220 (5 TM)", "experimental": "as §3, §2, §4"}, "CREB and ATF1": {"test_system": "CREB and ATF1", "assay": "Phosphorylation of CREB (Ser133) and ATF1 (Ser63) in 293 cells, immunoblot", "format": "cell-based, human", "conditions": "for EGF-induced CREB phosphorylation: 5 μM Ro 318220, 10 μM SB 203580, 50 μM PD 98059, EGF 100 ng/ml; for UV radiation-induced phosphorylation of CREB and ATF1: 5 μM Ro 318220, 10 μM SB 203580, 50 μM PD 98059", "experimental": "FIG. 10. […] 293 cells were pre-treated either in the presence or absence of 5 μM Ro 318220 (Ro), 10 μM SB 203580 (SB), 50 μM PD 98059 (PD), and then exposed to either (A, D) UV radiation (200 J/m^2, 30 min and then 30 min at 37° C.) (B, E) EGF (100 ng/ml, 15 min), (C) forskolin (20 μM, 15 min). The cells were lysed and proteins were separated on 10% acrylamide gels and immunoblotted using a phosphospecific antibody that recognised both CREB and ATF1 when phosphorylated on Ser133 and Ser63 respectively. The position of CREB and ATF1 on the blots is indicated.\nas §1"}},
  "note": "Entries after “also recorded” stand apart in the source; their conditions may differ.",
  "data": [
    {"smiles": "COc1cccc(-c2cc(=O)c3ccccc3o2)c1N", "note": "[PD 98059]", "values": [
      {"measurement": "NGF-induced phosphorylation of CREB", "setting": "CREB [1]", "value": "not significantly affected"},
      {"measurement": "LPS-stimulated phosphorylation of MSK1", "setting": "MSK1", "value": "appear to inhibit"},
      {"measurement": "LPS induction of IL-1 mRNA", "setting": "IL-1 mRNA", "value": "partially inhibited"},
      {"measurement": "FGF-induced phosphorylation of CREB", "setting": "CREB [2]", "value": "only inhibited slightly; also recorded: did not significantly suppress"},
      {"measurement": "mRNA encoding the housekeeping gene HPRT", "setting": "HPRT mRNA", "value": "unaffected"},
      {"measurement": "LPS induction of COX-2 mRNA", "setting": "COX-2 mRNA", "value": "partially suppressed"},
      {"measurement": "EGF-induced CREB phosphorylation", "setting": "CREB and ATF1", "value": "prevented"}
    ]},
    {"smiles": "Cn1cc(C2=C(c3cn(CCCSC(=N)N)c4ccccc34)C(=O)NC2=O)c2ccccc21", "note": "[Ro 318220]", "values": [
      {"measurement": "NGF-induced phosphorylation of CREB", "setting": "CREB [1]", "value": "suppressed"},
      {"measurement": "LPS-induced activation of MSK1", "setting": "MSK1", "value": "does not affect"},
      {"measurement": "LPS induction of IL-1 mRNA", "setting": "IL-1 mRNA", "value": "suppresses"},
      {"measurement": "phosphorylation of CREB at Ser133", "setting": "CREB [2]; sodium arsenite or FGF, 5 μM Ro 318220", "value": "largely suppressed"},
      {"measurement": "mRNA encoding the housekeeping gene HPRT", "setting": "HPRT mRNA", "value": "unaffected"},
      {"measurement": "LPS induction of COX-2 mRNA", "setting": "COX-2 mRNA", "value": "suppresses"},
      {"measurement": "UV radiation-induced phosphorylation of CREB and ATF1", "setting": "CREB and ATF1", "value": "largely inhibited"},
      {"measurement": "EGF-induced CREB phosphorylation", "setting": "CREB and ATF1", "value": "largely inhibited"},
      {"measurement": "phosphorylation of CREB and ATF1 induced by forskolin", "setting": "CREB and ATF1; 5 μM Ro 318220, forskolin 20 μM, 15 min", "value": "unaffected"}
    ]},
    {"smiles": "C[S+]([O-])c1ccc(-c2nc(-c3ccncc3)c(-c3ccc(F)cc3)[nH]2)cc1", "note": "(centres unmarked) [SB 203580]", "values": [
      {"measurement": "NGF-induced phosphorylation of CREB", "setting": "CREB [1]", "value": "not significantly affected"},
      {"measurement": "LPS-stimulated phosphorylation of MSK1", "setting": "MSK1", "value": "appear to inhibit"},
      {"measurement": "LPS-induced activation of MSK1", "setting": "MSK1", "value": "only inhibited partially"},
      {"measurement": "LPS induction of IL-1 mRNA", "setting": "IL-1 mRNA", "value": "partially inhibited"},
      {"measurement": "FGF-induced phosphorylation of CREB", "setting": "CREB [2]", "value": "only inhibited slightly"},
      {"measurement": "sodium arsenite-induced activation of CREB", "setting": "CREB [2]; 50 μM PD 98059, 10 μM SB 203580, arsenite 0.5 mM 15 min", "value": "prevented"},
      {"measurement": "mRNA encoding the housekeeping gene HPRT", "setting": "HPRT mRNA", "value": "unaffected"},
      {"measurement": "LPS induction of COX-2 mRNA", "setting": "COX-2 mRNA", "value": "partially suppressed"},
      {"measurement": "UV radiation-induced phosphorylation of CREB and ATF1", "setting": "CREB and ATF1", "value": "inhibited"},
      {"measurement": "EGF-induced CREB phosphorylation", "setting": "CREB and ATF1", "value": "not SB203580"}
    ]}
  ]
}
